Calls of active or inactive are those of the source. The rule behind the calls is not given here.
Key:
[1] = system: Human immunodeficiency virus 1; test: Antiviral activity against HIV1 3B infected in human MT4 cells assessed as inhibition of virus-induced cytopathic effect by MTT assay; type: functional, organism-based; settings: Human immunodeficiency virus 1, 3B
[2] = target: T1, Human immunodeficiency virus type 1 integrase (Human immunodeficiency virus 1, UniProt Q7ZJM1); test: Inhibition of wild type HIV1 integrase strand transfer activity using 5'-end 32P-labeled linear oligonucleotide as substrate preincubated for 30 mins
T1 sequence (Q7ZJM1 whole entry): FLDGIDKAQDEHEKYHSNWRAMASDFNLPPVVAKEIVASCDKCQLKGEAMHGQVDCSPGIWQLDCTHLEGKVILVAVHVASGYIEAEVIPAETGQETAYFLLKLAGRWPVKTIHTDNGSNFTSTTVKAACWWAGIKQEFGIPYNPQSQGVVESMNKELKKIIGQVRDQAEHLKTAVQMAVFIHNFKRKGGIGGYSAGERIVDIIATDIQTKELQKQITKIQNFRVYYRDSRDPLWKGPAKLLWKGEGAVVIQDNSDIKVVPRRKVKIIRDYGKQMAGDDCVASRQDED

[3] = target: T1, Human immunodeficiency virus type 1 integrase; test: Inhibition of wild type HIV1 integrase 3'-processing activity using 5'-end 32P-labeled linear oligonucleotide as substrate preincubated for 30 mins
[4] = Inhibition of human Flag-tagged LEDGF interaction to His6-tagged HIV1 integrase expressed in Escherichia coli BL21 (DE3) preincubated for 20 mins measured after 1 hr by AlphaScreen proximity luminescent assay
[5] = system: HCT-116; test: Cytotoxicity against human HCT116 p53 +/+ and -/- cells after 72 hrs by MTT assay; type: cell-based; settings: HCT-116, 72 h
[6] = Inhibition of human Flag-tagged LEDGF interaction to His6-tagged HIV1 integrase expressed in Escherichia coli BL21 (DE3) at 1000 uM preincubated for 20 mins measured after 1 hr by AlphaScreen proximity luminescent assay

C/C(=N\Nc1ccc(S(=O)(=O)Nc2ccccc2)cc1[N+](=O)[O-])c1cc(O)ccc1O
IC50 [1]: > 28 µM | IC50 [2]: > 100 µM | IC50 [3]: > 100 µM | IC50 [4]: 13 µM

NNC(=O)Cn1cnc(-c2ccc(F)cc2)c1
IC50 [4]: > 50 µM

Cc1cc(C)nc(N/N=C/c2cccc(O)c2)n1
EC50 [5]: 4 µM | IC50 [4]: > 50 µM

COc1c(Cl)cc(Cl)cc1/C=N/NC(=O)c1ccncc1
IC50 [2]: > 100 µM | IC50 [3]: > 100 µM | IC50 [4]: > 50 µM

CC(Oc1ccccc1)C(=O)N/N=C/c1ccccc1O (stereo unspecified)
EC50 [5]: 6.5 µM | IC50 [4]: 50 µM

O=C(N/N=C/c1cc(Br)ccc1O)C1=NNC2CCCCC12 (stereo unspecified)
EC50 [5]: 5 µM | IC50 [2]: 15 µM | IC50 [3]: 29 µM | IC50 [4]: 4 µM

O=[N+]([O-])c1ccccc1/C=N/N1CCN(Cc2ccccc2)CC1
EC50 [5]: < 10 µM | IC50 [4]: 24 µM

CCN(CC)c1ccc(/C=C2\CCC(/C=N/N3CCN(c4ccc(C)cc4)CC3)=C2N2CCOCC2)cc1
EC50 [5]: 3.3 µM | IC50 [4]: 46 µM

O=C(COc1ccc(Cl)cc1Cl)N/N=C/c1cc(Br)ccc1O
EC50 [5]: > 10 µM | IC50 [2]: > 100 µM | IC50 [3]: > 100 µM | IC50 [4]: 50 µM

COc1cc(Br)cc(/C=N/NC(=O)c2ccccn2)c1O
IC50 [1]: > 22 µM | IC50 [2]: 13 µM | IC50 [3]: 17 µM | IC50 [4]: 1.3 µM

Oc1ccc(/C=N/N2CCN(c3ccccc3)CC2)cc1O
EC50 [5]: > 10 µM | IC50 [2]: 31 µM | IC50 [3]: 69 µM | IC50 [4]: 16 µM

Cc1[nH]n(-c2ccccc2)c(=O)c1/C=N/Nc1ccc([N+](=O)[O-])cc1
EC50 [5]: > 10 µM | IC50 [4]: 6 µM

Cc1nnc(NN)c2c1[nH]c1ccccc12
IC50 [1]: > 50 µM | IC50 [2]: > 100 µM | IC50 [3]: > 100 µM | IC50 [4]: 5 µM

CCN(CC)c1ccc(/C=C2\CCC(/C=N/N=C/c3cccnc3)=C2N2CCOCC2)cc1
EC50 [5]: > 10 µM | IC50 [1]: > 20 µM | IC50 [2]: > 100 µM | IC50 [3]: > 100 µM | IC50 [4]: 3 µM

NNC(=O)c1cc(-c2ccc(Cl)cc2)n[nH]1
EC50 [5]: 10 µM | IC50 [4]: > 50 µM

CC(C)c1ccc(/C=N/N2CCN(Cc3ccccc3)CC2)cc1
EC50 [5]: > 10 µM | IC50 [4]: 50 µM

O=C(N/N=C/c1ccc(Cl)cc1Cl)c1n[nH]c2c1CCC2
EC50 [5]: < 1 µM | IC50 [4]: > 50 µM

CCNc1nc(NCC)nc(C(=O)Nc2ccccc2)n1
IC50 [4]: 21 µM

O=C(N/N=C/c1cc(Br)ccc1O)c1cccnc1
IC50 [1]: > 3 µM | IC50 [2]: > 100 µM | IC50 [3]: > 100 µM | IC50 [4]: 4 µM

O=C(CP(=O)(c1ccccc1)c1ccccc1)N/N=C/c1cc(Br)cc(Br)c1O
EC50 [5]: 3.3 µM | IC50 [2]: 100 µM | IC50 [3]: 100 µM | IC50 [4]: 50 µM

CC/C(=N\NC(=O)c1ccc(F)cc1)c1cc(Cl)cc(Cl)c1O
EC50 [5]: 2.5 µM | IC50 [4]: > 50 µM

O=C(N/N=C/c1c(O)ccc2ccccc12)c1n[nH]c2c1CCC2
EC50 [5]: < 1 µM | IC50 [1]: > 17 µM | IC50 [2]: > 100 µM | IC50 [3]: > 100 µM | IC50 [4]: 4 µM

O=C(N/N=C/c1cccnc1)C1=NNC2CCCCC12 (stereo unspecified)
EC50 [5]: 5 µM | IC50 [1]: > 20 µM | IC50 [4]: > 50 µM

COCCN1C(=O)/C(=C\NNC(=O)c2cc(Cl)ccc2O)C(=O)NC1=S
EC50 [5]: 10 µM | IC50 [1]: > 40 µM | IC50 [2]: 80 µM | IC50 [3]: 90 µM | IC50 [4]: 13 µM

Cc1nnc(Cl)c2c1[nH]c1ccccc12
IC50 [4]: > 50 µM

CCOc1cccc(/C=N/NC(=O)c2n[nH]c3c2CCC3)c1O
EC50 [5]: 6 µM | IC50 [1]: > 4 µM | IC50 [2]: > 100 µM | IC50 [3]: > 100 µM | IC50 [4]: 2 µM

Cc1nc2ccccc2c(=O)n1/N=C/c1ccccc1O
EC50 [5]: 10 µM | IC50 [4]: > 50 µM

c1ccc(/N=N/C(=N/Nc2ccccc2)c2ccccc2)cc1
EC50 [5]: > 10 µM | IC50 [1]: > 5 µM | IC50 [2]: > 100 µM | IC50 [3]: > 100 µM | IC50 [4]: 20 µM

C/C(=N\NC(=O)C1CCCCC1)c1ccccc1O
EC50 [5]: > 10 µM | IC50 [1]: > 20 µM | IC50 [4]: 93 µM

COc1ccc(OC)c(/C=N/NC(=O)c2n[nH]c3c2CCC3)c1
EC50 [5]: > 10 µM | IC50 [1]: > 40 µM | IC50 [2]: > 100 µM | IC50 [3]: > 100 µM | IC50 [4]: > 50 µM

Cc1sc2ncnc(N/N=C/c3c(O)ccc4ccccc34)c2c1C
EC50 [5]: < 1 µM | IC50 [2]: 52 µM | IC50 [3]: 77 µM | IC50 [4]: 6 µM

COCC/N=c1/scc(-c2cccs2)n1/N=C/c1cc(Br)c(O)c(OC)c1
EC50 [5]: > 10 µM | IC50 [1]: > 15 µM | IC50 [2]: > 100 µM | IC50 [3]: > 100 µM | IC50 [4]: 14 µM

CC/N=c1/scc(-c2ccc(Br)cc2)n1/N=C/c1ccc(O)c(O)c1O
EC50 [5]: > 10 µM | IC50 [1]: > 35 µM | IC50 [4]: < 25 µM

O=C(N/N=C/c1c(O)ccc2ccccc12)c1ccncc1
IC50 [2]: > 100 µM | IC50 [3]: > 100 µM | IC50 [4]: 6 µM

COc1ccccc1N1CCN(/N=C/c2ccc(Cl)c([N+](=O)[O-])c2)CC1
EC50 [5]: > 10 µM | IC50 [1]: > 100 µM | IC50 [2]: > 100 µM | IC50 [3]: > 100 µM | IC50 [4]: 21 µM

COC(=O)c1ccc(/N=N/c2ccc([P+](c3ccccc3)(c3ccccc3)c3ccccc3)cc2)cc1
EC50 [5]: 0.4 µM | IC50 [4]: 36 µM

CC/N=c1/scc(-c2cc(OC)ccc2OC)n1/N=C(\C)c1ccco1
EC50 [5]: > 10 µM | IC50 [1]: > 60 µM | IC50 [2]: > 100 µM | IC50 [3]: > 100 µM | IC50 [4]: 8 µM

O=C1C(O)=Cc2ccccc2/C1=N\Nc1ccc(Cl)cc1
IC50 [1]: > 40 µM | IC50 [2]: 100 µM | IC50 [3]: > 100 µM | IC50 [4]: 3 µM

COc1cc(/C=N/Nc2ccc(S(=O)(=O)Nc3ccccc3C(=O)O)cc2[N+](=O)[O-])ccc1O
IC50 [1]: > 10 µM | IC50 [2]: > 100 µM | IC50 [3]: > 100 µM | IC50 [4]: 25 µM

O=C(N/N=C/c1ccccc1O)c1cnccn1
EC50 [5]: 9 µM | IC50 [1]: > 40 µM | IC50 [2]: > 100 µM | IC50 [3]: > 100 µM | IC50 [4]: 0.4 µM

NNC(=O)c1ccncc1
inhibition [6]: inactive

Cc1nnc(NNC(=O)c2ccccc2)c2c1[nH]c1ccccc12
IC50 [4]: > 50 µM

C/C(=N\N1CCN(Cc2ccccc2Cl)CC1)c1ccc([N+](=O)[O-])cc1
EC50 [5]: > 10 µM | IC50 [1]: > 100 µM | IC50 [2]: > 100 µM | IC50 [3]: > 100 µM | IC50 [4]: 19 µM

COc1ccccc1NS(=O)(=O)c1ccc(N/N=C(\C)c2ccccc2Br)c([N+](=O)[O-])c1
EC50 [5]: > 10 µM | IC50 [1]: 12 µM | IC50 [2]: > 100 µM | IC50 [3]: > 100 µM | IC50 [4]: 6 µM

Cc1occc1C(=O)NN/C=C1/C(=O)N(c2ccccc2Cl)C(=O)c2ccccc21
EC50 [5]: 6.5 µM | IC50 [2]: 75 µM | IC50 [3]: 90 µM | IC50 [4]: 8 µM

Oc1ccc(Br)cc1/C=N/Nc1cccc2cccnc12
IC50 [2]: > 100 µM | IC50 [3]: > 100 µM | IC50 [4]: > 50 µM

O=C(N/N=C/c1ccc(Cl)cc1Cl)c1cnccn1
EC50 [5]: > 10 µM | IC50 [2]: > 100 µM | IC50 [3]: > 100 µM | IC50 [4]: > 50 µM

Cn1cccc1/C=N/N1CCN(Cc2ccccc2)CC1
EC50 [5]: > 10 µM | IC50 [2]: > 100 µM | IC50 [3]: > 100 µM | IC50 [4]: 32 µM

O=C(N/N=C/c1ccc(O)cc1O)c1ccncc1
EC50 [5]: 4 µM | IC50 [2]: > 100 µM | IC50 [3]: > 100 µM | IC50 [4]: 4 µM

Cc1ccc(N/N=C2\Sc3ccccc3C2=O)cc1
EC50 [5]: 10 µM | IC50 [1]: > 100 µM | IC50 [2]: > 100 µM | IC50 [3]: > 100 µM | IC50 [4]: 6 µM

O=C(N/N=C/c1c(O)ccc2ccccc12)c1cc[nH]n1
EC50 [5]: 1.5 µM | IC50 [1]: > 14 µM | IC50 [2]: > 100 µM | IC50 [3]: > 100 µM | IC50 [4]: 7 µM

COc1ccc(CN2CCCN(c3ccc(S(=O)(=O)Nc4ccccc4)cc3[N+](=O)[O-])CC2)cc1
EC50 [5]: > 10 µM | IC50 [1]: 24 µM | IC50 [4]: 34 µM

O=C(Nn1cnc2ccccc2c1=O)c1cnccn1
IC50 [4]: 39 µM

C=CC/N=c1/scc(-c2ccccc2Br)n1/N=C/c1ccccn1
IC50 [1]: > 1 µM | IC50 [2]: > 100 µM | IC50 [3]: > 100 µM | IC50 [4]: 23 µM

CCN(CC)c1ccc(/C=C2\CCC(/C=N/N=C/c3c(C)[nH]c4ccccc34)=C2N2CCOCC2)cc1
EC50 [5]: > 10 µM | IC50 [4]: 40 µM

COc1ccc(O)c(/C=N/NC(=O)c2sc3ccccc3c2O)c1
EC50 [5]: 8 µM | IC50 [2]: > 100 µM | IC50 [3]: > 100 µM | IC50 [4]: 38 µM

CCNc1nc(NCC)nc(C(=O)NN)n1
IC50 [1]: > 20 µM | IC50 [2]: < 100 µM | IC50 [3]: < 100 µM | IC50 [4]: 6 µM

FC(F)(F)c1ccccc1/C=N/N1CCN(Cc2ccccc2)CC1
EC50 [5]: > 10 µM | IC50 [2]: > 100 µM | IC50 [3]: > 100 µM | IC50 [4]: 35 µM

CC(=O)c1ccc(/N=N/c2ccc(C[P+](c3ccccc3)(c3ccccc3)c3ccccc3)cc2)cc1
EC50 [5]: 0.5 µM | IC50 [2]: > 100 µM | IC50 [3]: > 100 µM | IC50 [4]: 12 µM

CN(C)c1ccc(/N=N/c2ccc(Cl)cc2)cc1
EC50 [5]: > 10 µM | IC50 [1]: > 100 µM | IC50 [2]: > 100 µM | IC50 [3]: > 100 µM | IC50 [4]: 2 µM

Reference: ChEMBL document CHEMBL2311445, “Discovery of novel inhibitors of LEDGF/p75-IN protein-protein interactions” (Bioorg Med Chem, 2013)
